The values that follow come from ChEMBL document CHEMBL1201862, “PubChem BioAssay data set” (2004).

The structures appear in SMILES notation.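 Exposure lasted 48 hours, with cells grown in 96-well plates and compounds tested at five concentrations. At the GI50, growth is halved.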 Activity calls are given as the source filed them. No stated cut-off is given here; in the data, active = GI50 up to about 1.1 µM and inactive = higher.

Among the test systems are CCRF-CEM; DLD-1; DMS-273; KM-20L2; KM12; LXFL 529; M14; RXF 393; SK-MEL-28; SK-OV-3; UACC-62; XF498; A498; 786-0; MCF7; NCI/ADR-RES.
Common to all, as to experiment: inhibition of tumour cell growth, NCI panel, 48 h

As for `COc1cc2c(cc1OC)C(C1(O)CCCCC1)NCC2` (stereo unspecified), the GI50 with CCRF-CEM, in the assay with DLD-1, in the assay with DMS-273, in the assay on KM-20L2, with KM12 and with LXFL 529 was > 100 µM (inactive) in each case. The GI50 in the assay on M14, in the assay with RXF 393, in the assay with SK-MEL-28, in the assay with SK-OV-3, in the assay on UACC-62 and in the assay with XF498 was > 100 µM (inactive) in each case.
Consider `N#CCCOCN(CO)c1nc(N(CO)COCCC#N)nc(N(CO)COCCC#N)n1`, for which the GI50 is > 100 µM (inactive) in the assay on A498; 23.6 µM (inactive) with CCRF-CEM; 26.7 µM (inactive) in the assay on DLD-1; 18.7 µM (inactive) with DMS-273; 25.9 µM (inactive) in the assay on KM-20L2; 33 µM (inactive) in the assay on KM12. For the same compound, the GI50 in the assay on LXFL 529 is 17 µM (inactive); in the assay with M14, 21 µM (inactive); with RXF 393, 20.9 µM (inactive); with SK-MEL-28 it was 20.7 µM (inactive); in the assay on SK-OV-3, > 100 µM (inactive); in the assay with XF498 it was 17.5 µM (inactive).
As to `C=C(c1ccccc1)c1cc2c(=O)[nH]ccc2n1C`, the GI50 was 27.5 µM (inactive) with 786-0; 31.3 µM (inactive) with CCRF-CEM; 31.9 µM (inactive) with DLD-1; 27.5 µM (inactive) in the assay on DMS-273; 23.3 µM (inactive) in the assay with KM-20L2; 34.4 µM (inactive) in the assay on KM12. Besides, the GI50 in the assay on LXFL 529 was 35.6 µM (inactive); with M14 it was 29.2 µM (inactive); in the assay on RXF 393 it was 19.3 µM (inactive); in the assay on SK-MEL-28, 44.7 µM (inactive); with SK-OV-3, 26 µM (inactive); with UACC-62, 28.5 µM (inactive). Besides, the GI50 with XF498 is 30.5 µM (inactive).
With `COCCOCOc1ccc(OCc2ccccc2)cc1`, the GI50 is > 58.5 µM (inactive) in the assay on A498; 36.6 µM (inactive) in the assay on CCRF-CEM; > 100 µM (inactive) with DLD-1; > 94.6 µM (inactive) in the assay on DMS-273; > 100 µM (inactive) with KM-20L2; > 100 µM (inactive) in the assay with KM12. The GI50 with MCF7 was > 35.9 µM (inactive); in the assay on NCI/ADR-RES, > 82.8 µM (inactive); with RXF 393, > 100 µM (inactive); with SK-MEL-28, > 100 µM (inactive); in the assay with SK-OV-3, > 100 µM (inactive); in the assay on UACC-62, > 100 µM (inactive). Also, in the assay on XF498, the GI50 is > 100 µM (inactive).
As for `COc1cc(Cc2ccc3c(c2C#N)N(C)c2ccccc2S3)cc(OC)c1OC`, the GI50 with A498 is 21.8 µM (inactive); with CCRF-CEM, 39.3 µM (inactive); in the assay on DLD-1, > 100 µM (inactive); in the assay on DMS-273 it was 33.4 µM (inactive); in the assay on KM-20L2, 36.1 µM (inactive); with KM12, > 100 µM (inactive). Further, the GI50 with LXFL 529 is 6.87 µM (inactive); in the assay with M14 it was > 100 µM (inactive); in the assay on RXF 393, 15.3 µM (inactive); in the assay with SK-MEL-28 it was > 100 µM (inactive); with SK-OV-3, > 100 µM (inactive); in the assay on XF498, 30.1 µM (inactive).
With `COc1cc2c(cc1Oc1ccc(OC)c3c1CC1c4c(cc(OC)c(OC)c4-3)CCN1C)CC1c3c(cc(OC)c(OC)c3-2)CCN1C` (stereo unspecified), the GI50 with A498 was 2.77 µM (inactive); in the assay on CCRF-CEM it was 2.45 µM (inactive); in the assay with DLD-1 it was 2.23 µM (inactive); in the assay with DMS-273, 1.02 µM (active); in the assay on KM-20L2, 0.957 µM (active); in the assay on KM12, 2.35 µM (inactive). The GI50 is 3.08 µM (inactive) in the assay on MCF7; 4.51 µM (inactive) with NCI/ADR-RES; 1.52 µM (inactive) in the assay on RXF 393; 1.82 µM (inactive) in the assay on SK-MEL-28; 17.8 µM (inactive) with SK-OV-3; 1.97 µM (inactive) in the assay on UACC-62. For the same compound, the GI50 in the assay with XF498 was 1.98 µM (inactive).
For `COc1ccc(C2ON(c3ccccn3)CC=C2C)cc1` (stereo unspecified), the GI50 in the assay with 786-0, with CCRF-CEM, in the assay with DLD-1, in the assay on DMS-273, in the assay on KM-20L2 and with KM12 was > 100 µM (inactive) each time. Moreover, the GI50 with LXFL 529, with M14, with RXF 393, with SK-MEL-28, with SK-OV-3 and in the assay on UACC-62 was > 100 µM (inactive) each time. In the assay on XF498, the GI50 was > 100 µM (inactive).
As for `Cc1ccccc1-c1nc2c(C(=O)NCCN(C)C)cccc2[nH]1`, the GI50 is 42.3 µM (inactive) in the assay with A498; 27 µM (inactive) with CCRF-CEM; 37.7 µM (inactive) with DLD-1; 31.5 µM (inactive) with DMS-273; 25.6 µM (inactive) with KM-20L2; 52.8 µM (inactive) in the assay with KM12. Also, the GI50 was 41 µM (inactive) in the assay with MCF7; 34.3 µM (inactive) in the assay with NCI/ADR-RES; 78.9 µM (inactive) in the assay with RXF 393; > 93.3 µM (inactive) in the assay on SK-MEL-28; 46.5 µM (inactive) with SK-OV-3; 40.3 µM (inactive) with UACC-62. The GI50 in the assay with XF498 was 39.7 µM (inactive).
